Read-outs that look alike come from different tables or passages of the source.

For data set [1], the system named is N. fowleri trophozoites. Put plainly: Anti-amoebic viability assay (CellTiter-Blue) with microscopic observation. The conditions noted are these: for Selectivity Index: CC50 of C6 glial cell divided by IC50 of inhibition of N. fowleri; for IC50 / IC90: 48 h, N. fowleri trophozoites, viability; for IC50: mean ± SD of three assays, read-out: IC50 of Inhibition of N. fowleri; for IC90: mean ± SD; for morphological changes of N. fowleri (microscopy): treated trophozoites versus 0.1% DMSO negative control; for Relative Potency to Miltefosine: IC50 of miltefosine divided by IC50 of compound, N. fowleri. The data set is classed as cell-based, Naegleria fowleri. Here is the method: (§1) A viability assay was performed to evaluate the inhibitory activity of the tested compounds by determining their IC50 values against N. fowleri, using miltefosine as a reference drug. To assess the selectivity of the tested compounds relative to miltefosine, cytotoxic values that reduced the viability of C6 glial cells by 50% were established.
(§2) N. fowleri Carter NF69 strain (ATCC 30215; American Type Culture Collection, Manassas, VA, USA) was used. Amoeba trophozoites were cultured and maintained in Nelson’s medium containing 5% foetal bovine serum (FBS; Gibco, Grand Island, NY, USA) and 1% penicillin/streptomycin (P/S; Gibco, Grand Island, NY, USA) at 37 °C [56]. C6 rat glial cells (C6 cells; ATCC CCL-107) were cultured in Dulbecco’s Modified Eagle’s Medium (DMEM; Gibco, Grand Island, NY, USA) supplemented with 10% FBS (Gibco, Grand Island, NY, USA) and 1% P/S (Gibco, Grand Island, NY, USA) at 37 °C in a humidified incubator under 5% CO2 atmosphere.
N. fowleri trophozoites (5 × 10^4 cells/well) were seeded in a 96-well microplate (Thermo Fisher Scientific, Waltham, MA, USA) in Nelson’s medium and incubated at 37 °C overnight. N. fowleri trophozoites were treated with 2-fold serial dilutions of tested compounds (from 0 to 200 µM) or miltefosine (150 µM) and incubated at 37 °C for 48 h. The viability of the amoebae was determined using the CellTiter-Blue® Cell viability assay (Promega, Madison, WI, USA). Inhibitory concentration 50 (IC50) and IC90 were calculated by the nonlinear regression method using GraphPad Prism 9.1.0 software (GraphPad Software, San Diego, CA, USA). Amoebae treated with 0.1% DMSO were used as a control, representing 100% cell viability. Morphological changes of the amoebae were observed microscopically.

Data set [2] is described as follows: Cytotoxicity assay for C6 cells (CellTiter-Blue). Format: cell-based. The conditions noted are these: rat, C6 glial cells, viability, mean ± SD. The procedure:
as §1, §2
The potential cytotoxicity of tested compounds and miltefosine in C6 cells was analysed. The cells were seeded in a 96-well microplate (Thermo Fisher Scientific; 2 × 10^4 cells/well), respectively, and incubated overnight until 80% confluent. Serially diluted tested compounds and miltefosine were treated to the cells as described above. Morphological changes of the cells were observed by microscopic examination. Cell viability was determined using the CellTiter-Blue® Cell viability assay (Promega, […], USA). The cytotoxic concentrations 50 (CC50) of tested compounds and miltefosine were calculated using GraphPad Prism 9.1.0 software (GraphPad Software, San Diego, CA, USA). The […] (SI) was determined by the ratio between CC50 and IC50. Cells treated with 0.1% DMSO, which was confirmed not to alter the morphology of the cells by microscopic examination, were used as controls with 100% cell viability.
In general terms: The colour change of resazurin is a common sign of viable cells or microbes.

The test system of data set [3] is N. fowleri trophozoites. Put plainly: Apoptosis/necrosis fluorescence staining assay. The data set is classed as cell-based, Naegleria fowleri. The conditions noted are these: at IC90, 48 h; apopxin green, 7-AAD red, cytocalcein blue. The source says: While apoptosis was previously believed to occur in multicellular metazoans, it was discovered that ancient forms of apoptotic-like cell death, which mimics some characteristics of apoptosis, can also trigger death in protozoa. In fact, apoptosis-like death is one of the programmed cell death molecular mechanisms in protozoa that also include necrosis. To further understand how compounds 2a, 3b and 3d trigger the death of N. fowleri in comparison to miltefosine, an evaluation of apoptosis and necrosis was conducted at IC90 of the tested compounds for 48 h. […] The diminished cytocalceine blue fluorescence, coupled with the surge in green fluorescence signifying apoptosis after treatment with the compounds (Figure 5), clearly indicates the reduction in viable cells and the initiation of programmed cell death. The absence of 7-AAD red fluorescence further reinforces the lack of detectable necrosis. This is a desirable trait for potential therapeutic agents, as necrosis, unlike apoptosis, can trigger inflammation due to the uncontrolled release of intracellular contents.
Figure 5 Apoptosis/necrosis assay. A fluorescence staining assay was performed using N. fowleri trophozoites treated with compounds 2a, 3b, 3d, and miltefosine (MF) as a reference; NC, negative controls with 0.1% DMSO treatment. Blue fluorescence representing living cells stained with cytocalcein (DAPI channel, Ex/Em = 405/450 nm). Green apopxin stains apoptotic cells to show green fluorescence (GFP channel, Ex/Em = 490/525 nm). 7-Amino Actinomycin D (7-AAD) stains late apoptotic cells and necrotic cells to show red fluorescence (RFP channel, Ex/Em = 550/650 nm). Images were representatives of cell populations in three individual experiments. Size bar: 10 µm.
Apoptosis/necrosis in treated N. fowleri trophozoites was assessed using the Apoptosis/Necrosis Detection Kit (Abcam, Cambridge, UK). N. fowleri trophozoites (5 × 10^4 cells/well) were seeded in a 96-well black/clear bottom plate (Thermo Fisher Scientific). Compounds 2a, 3b and 3d were treated to the cells at the concentrations of IC90 and incubated at 37 °C for 48 h. The apoptosis/necrosis assay was performed as described previously. Amoebae treated with 0.1% DMSO and miltefosine (IC90) were used as the negative controls (NC) and the positive controls, respectively.

Data set [4] deals with N. fowleri trophozoites. Briefly: TUNEL assay (DNA fragmentation). The conditions noted are these: at IC90, 48 h; PI counterstain. Format: cell-based, Naegleria fowleri. Here is the method: To further confirm the apoptotic mode of cell death induced by compounds 2a, 3b and 3d in N. fowleri, a TUNEL assay was conducted. This assay detects DNA fragmentation, a hallmark of apoptosis, by incorporating fluorescent dUTP at DNA break sites. […] This difference could reflect variations in the specific molecular pathways targeted by each compound or differences in their cellular uptake or metabolism.
Figure 6 TUNEL assay. DNA fragmentation implying apoptosis was detected by TUNEL (GFP channel, (Ex/Em = 490/525 nm) in the amoebae treated with tested compounds. These amoebae were also counterstained with PI (RFP channel, Ex/Em = 550/650 nm). Miltefosine (MF) was included as a positive reference control. NC, negative controls with 0.1% DMSO treatment. Images were representatives of the cell population in three individual experiments. Size bar: 10 µm.
N. fowleri trophozoites (2 × 10^6 cells/well) were seeded in a 6-well plate (Thermo Fisher Scientific), treated with compounds 2a, 3b or 3d (IC90) and incubated at 37 °C for 48 h. The TUNEL assay was performed by using TUNEL Fluorescein Isothiocyanate (FITC) Assay Kit (Abcam, Cambridge, UK) as described previously. N. fowleri trophozoites treated with 0.01% DMSO was used as an NC. The amoeba treated with miltefosine (IC90) were used as a positive control.

The term IC50 denotes the concentration at which inhibition is half-maximal. Usually IC90 stands for the point of the concentration-response curve where the effect stands at 90%. One may read the CC50 as the concentration that lowers cell viability or growth by half. Take `CCCCCCCCCCCCCO[C@@H]1CCC[C@H]1COP(=O)([O-])OCC[N+](C)(C)C` [Compound 2a]: in the data set with N. fowleri trophozoites [1], the “Selectivity Index” value came to 7.53 and the “morphological changes of N. fowleri (microscopy)” value (shortened to “morphological changes”) was “dose-dependent morphological changes”. In the data set on N. fowleri trophozoites [1] (Naegleria fowleri), the IC50 was 42 ± 1.32 µM and the IC90 was determined as 109 µM. The compound also gave a CC50 in data set [2] of 316.6 ± 2.1 µM. Also, in the data set on N. fowleri trophozoites [3], the “mode of cell death (apoptosis/necrosis staining)” value is “apoptosis-like death, rather than necrosis”. Further, the “DNA fragmentation (TUNEL green fluorescence)” value (“DNA fragmentation” for short) with N. fowleri trophozoites [4] was “intense green fluorescence, confirming DNA fragmentation”.

In the case of `CCCCCCCCCCCCCOC[C@@H]1CCC[C@H]1OP(=O)([O-])OCC[N+](C)(C)C` [Compound 3b], in the data set with N. fowleri trophozoites [1], the “Selectivity Index” value was found to be 3.90 and the “morphological changes” value is listed as “dose-dependent morphological changes”. In the data set on N. fowleri trophozoites [1] (Naegleria fowleri), the IC50 is 40.9 ± 1.9 µM and the IC90 worked out at 104 µM. Also, the midpoint of cytotoxicity in data set [2], the CC50, lay at 159.5 ± 0.87 µM. The “mode of cell death (apoptosis/necrosis staining)” value in the data set on N. fowleri trophozoites [3] is reported as “apoptosis-like death, rather than necrosis”. Further, the “DNA fragmentation” value in the data set on N. fowleri trophozoites [4] is given as “intense green fluorescence, confirming DNA fragmentation”.

Regarding `CCCCCCCCCCCCCCCCCCCCCCOC[C@@H]1CCC[C@H]1OP(=O)([O-])OCC[N+](C)(C)C` [Compound 3d], in the data set with N. fowleri trophozoites [1], the “Selectivity Index” value is recorded as 3.49, the “Relative Potency to Miltefosine” value turned out to be 6.03 fold and the “morphological changes” value is on record as “dose-dependent morphological changes”. Further, the “fold the potency of trans-configured behenyl derivative 2d” value in the data set with N. fowleri trophozoites [1] (N. fowleri IC50 ratio versus compound 2d) worked out at 2.29 fold. Besides, in the data set with N. fowleri trophozoites [1] (Naegleria fowleri), the IC50 was determined as 24.3 ± 1.1 µM and the IC90 came to 187 µM. The same compound yielded a CC50 in data set [2] of 84.9 ± 1.29 µM. Moreover, the “mode of cell death (apoptosis/necrosis staining)” value in the data set with N. fowleri trophozoites [3] is given as “apoptosis-like death, rather than necrosis”. For the same compound, in the data set on N. fowleri trophozoites [4], the “DNA fragmentation” value is “intense green fluorescence, confirming DNA fragmentation”.

As for `CCCCCCCCCCCCCCCCOP(=O)([O-])OCC[N+](C)(C)C` [Miltefosine], in the data set on N. fowleri trophozoites [1], the “Selectivity Index” value was approximately 1.08, the “Relative Potency to Miltefosine” value came out at 1.00 fold and the IC50 is 146.53 ± 0.12 µM. Besides, in the data set with N. fowleri trophozoites [1] (Naegleria fowleri), the IC50 was found to be 146.44 ± 0.12 µM and the IC90 was more than 200 µM. Besides, the CC50 in data set [2] turned out to be 157.8 ± 1.49 µM. For the same compound, in the data set on N. fowleri trophozoites [3], the “mode of cell death (apoptosis/necrosis staining)” value is “apoptosis-like death, rather than necrosis”. Also, the “DNA fragmentation” value in the data set with N. fowleri trophozoites [4] is “intense green fluorescence, confirming DNA fragmentation”.

Source of the values: paper PMC12298883, “Discovery of Cyclopentane-Based Phospholipids as Miltefosine Analogs with Superior Potency and Enhanced Selectivity Against Naegleria fowleri” (Pharmaceuticals, 2025).
